Results reported in patent US12617797B2, “Substituted pyrazolo [1,5-a]pyrimidines having multimodal activity against pain” (ESTEVE PHARMACEUTICALS, S.A., priority 2020, dated 2026).

Legend:
[1] = target: Human α2δ-1 subunit of Cav2.2 calcium channel (Homo sapiens, UniProt P54289); experiment: Human α2δ-1 subunit of Cav2.2 calcium channel assay ([3H]-gabapentin binding); settings: binding to the α2δ-1 subunit of voltage-gated calcium channels expressed as Ki; + also covers inhibition between 1% and 50%
How it was run: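 Membranes enriched in human α2δ-1 incubated with 15 nM [3H]-gabapentin in 10 mM Hepes-KOH pH 7.4, 60 min at 27 °C; nonspecific binding defined with 10 μM pregabalin. Filtration and scintillation counting; % inhibition at 1 or 10 μM, or Ki from five concentrations.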

[2] = target: T1, Human σ1 receptor (Homo sapiens, UniProt Q99720); experiment: Human σ1 receptor radioligand assay ([3H](+)-pentazocine binding, transfected HEK-293 membranes); settings: binding to σ1 receptor expressed as Ki; + also covers inhibition between 1% and 50%; read-out: σ-1 binding
T1 construct: expressed in transfected cells; host or cells: HEK-293
How it was run: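 Membranes (7 μg) were incubated with 5 nM [3H](+)-pentazocine in 50 mM Tris-HCl pH 8 for 120 min at 37° C. Non-specific binding was defined with 10 μM haloperidol. Values are % inhibition at 1 or 10 μM or Ki from five concentrations, read by filtration and scintillation counting.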

Sequence of Human α2δ-1 subunit of Cav2.2 calcium channel (P54289 25-1103): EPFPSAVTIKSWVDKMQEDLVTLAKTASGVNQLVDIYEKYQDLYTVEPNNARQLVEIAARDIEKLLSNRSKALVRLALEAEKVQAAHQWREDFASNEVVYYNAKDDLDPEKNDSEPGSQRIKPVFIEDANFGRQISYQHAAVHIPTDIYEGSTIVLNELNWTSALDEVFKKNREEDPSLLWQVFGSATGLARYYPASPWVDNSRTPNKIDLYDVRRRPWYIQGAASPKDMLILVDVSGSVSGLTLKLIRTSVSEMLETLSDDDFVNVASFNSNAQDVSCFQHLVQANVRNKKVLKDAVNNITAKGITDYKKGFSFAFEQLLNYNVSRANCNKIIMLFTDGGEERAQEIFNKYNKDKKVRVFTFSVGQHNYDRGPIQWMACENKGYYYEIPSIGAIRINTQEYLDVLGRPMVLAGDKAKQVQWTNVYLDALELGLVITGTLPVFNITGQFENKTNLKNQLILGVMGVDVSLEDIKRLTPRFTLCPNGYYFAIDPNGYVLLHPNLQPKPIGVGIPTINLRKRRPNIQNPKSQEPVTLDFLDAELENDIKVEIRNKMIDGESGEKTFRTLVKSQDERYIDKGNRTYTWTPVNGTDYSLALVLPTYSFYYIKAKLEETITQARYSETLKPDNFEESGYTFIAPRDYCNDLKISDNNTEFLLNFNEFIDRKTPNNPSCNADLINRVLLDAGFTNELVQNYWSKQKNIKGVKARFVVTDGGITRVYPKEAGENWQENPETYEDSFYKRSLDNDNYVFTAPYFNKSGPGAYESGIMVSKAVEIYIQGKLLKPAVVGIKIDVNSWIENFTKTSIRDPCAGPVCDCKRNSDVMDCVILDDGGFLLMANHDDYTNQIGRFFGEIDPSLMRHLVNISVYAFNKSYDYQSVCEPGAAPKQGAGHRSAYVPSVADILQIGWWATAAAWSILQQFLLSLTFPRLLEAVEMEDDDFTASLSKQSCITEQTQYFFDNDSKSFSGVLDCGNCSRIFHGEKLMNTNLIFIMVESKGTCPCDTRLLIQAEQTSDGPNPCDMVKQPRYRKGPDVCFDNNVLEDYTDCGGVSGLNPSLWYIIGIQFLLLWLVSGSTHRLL
T1 sequence (Q99720 whole entry): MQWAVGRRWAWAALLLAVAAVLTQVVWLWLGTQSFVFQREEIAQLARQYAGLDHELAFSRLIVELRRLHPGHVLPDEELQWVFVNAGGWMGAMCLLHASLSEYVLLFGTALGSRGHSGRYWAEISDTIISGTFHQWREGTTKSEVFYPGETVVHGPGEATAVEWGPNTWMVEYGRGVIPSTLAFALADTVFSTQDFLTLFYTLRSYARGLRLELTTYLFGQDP

SMILES | Ki [1] | Ki [2]
Cc1nn2c(C3CCCN(Cc4ccccc4)C3)ccnc2c1CNCc1ccccc1 (centres unmarked) [Example 98, N-Benzyl-1-(7-(1-benzylpiperidin-3-yl)-2-methylpyrazolo[1,5-a]pyrimidin-3-yl)methanamine] | 0.5 to 5 µM | < 500 nM
Cc1nn2c(C3CCCN(Cc4ccccc4)C3)ccnc2c1CN (centres unmarked) [Example 99, (7-(1-Benzylpiperidin-3-yl)-2-methylpyrazolo[1,5-a]pyrimidin-3-yl)methanamine] | 0.5 to 5 µM | > 1000 nM
Cc1nn2c(C3CCCN(Cc4ccccc4)C3)ccnc2c1CN1CCNCC1 (centres unmarked) [Example 100, 7-(1-Benzylpiperidin-3-yl)-2-methyl-3-(piperazin-1-ylmethyl)pyrazolo[1,5-a]pyrimidine] | 0.5 to 5 µM | > 1000 nM
Cc1nn2c(C3CCCN(Cc4ccccc4)C3)ccnc2c1COCc1ccccc1 (centres unmarked) [Example 101, 3-((Benzyloxy)methyl)-7-(1-benzylpiperidin-3-yl)-2-methylpyrazolo[1,5-a]pyrimidine] | > 5 µM | < 500 nM
Cc1nn2c(C3CCCN(Cc4ccccc4)C3)ccnc2c1COc1ccccc1 (centres unmarked) [Example 102, 7-(1-Benzylpiperidin-3-yl)-2-methyl-3-(phenoxymethyl)pyrazolo[1,5-a]pyrimidine] | > 5 µM | > 1000 nM
Cc1nn2c(C3CCCN(Cc4ccccc4)C3)ccnc2c1CCCN (centres unmarked) [Example 103, 3-(7-(1-Benzylpiperidin-3-yl)-2-methylpyrazolo[1,5-a]pyrimidin-3-yl)propan-1-amine] | 0.5 to 5 µM | > 1000 nM
Cc1nn2c([C@@H]3CCCN([C@H](CO)c4ccccc4)C3)ccnc2c1-c1ccncc1 [Example 106, (S)-2-((R)-3-(2-Methyl-3-(pyridin-4-yl)pyrazolo[1,5-a]pyrimidin-7-yl)piperidin-1-yl)-2-phenylethanol] | > 5 µM | > 1000 nM
Cc1nn2c([C@H]3CCCN([C@H](CO)c4ccccc4)C3)ccnc2c1-c1ccncc1 [Example 107, (S)-2-((S)-3-(2-methyl-3-(pyridin-4-yl)pyrazolo[1,5-a]pyrimidin-7-yl)piperidin-1-yl)-2-phenylethanol] | > 5 µM | > 1000 nM
Cc1nn2c([C@H]3CCCN([C@@H](CO)c4ccccc4)C3)ccnc2c1-c1ccncc1 [Example 108, (R)-2-((S)-3-(2-methyl-3-(pyridin-4-yl)pyrazolo[1,5-a]pyrimidin-7-yl)piperidin-1-yl)-2-phenylethanol] | > 5 µM | > 1000 nM
Cc1nn2c([C@@H]3CCCN([C@@H](CO)c4ccccc4)C3)ccnc2c1-c1ccncc1 [Example 109, (R)-2-((R)-3-(2-methyl-3-(pyridin-4-yl)pyrazolo[1,5-a]pyrimidin-7-yl)piperidin-1-yl)-2-phenylethanol] | 0.5 to 5 µM | > 1000 nM
Clc1ccc(CN2CCCC(c3ccnc4cc(Br)nn34)C2)cc1 (centres unmarked) [Example 110, 2-Bromo-7-(1-(4-chlorobenzyl)piperidin-3-yl)pyrazolo[1,5-a]pyrimidine] | > 5 µM | 500 to 1000 nM
Clc1cccc(CN2CCCC(c3ccnc4cc(Br)nn34)C2)c1 (centres unmarked) [Example 111, 2-Bromo-7-(1-(3-chlorobenzyl)piperidin-3-yl)pyrazolo[1,5-a]pyrimidine] | > 5 µM | > 1000 nM
Clc1ccc(CN2CCCC(c3ccnc4cc(Br)nn34)C2)cc1Cl (centres unmarked) [Example 112, 2-Bromo-7-(1-(3,4-dichlorobenzyl)piperidin-3-yl)pyrazolo[1,5-a]pyrimidine] | > 5 µM | > 1000 nM
Fc1ccc(CN2CCCC(c3ccnc4cc(Br)nn34)C2)cc1F (centres unmarked) [Example 113, 2-Bromo-7-(1-(3,4-difluorobenzyl)piperidin-3-yl)pyrazolo[1,5-a]pyrimidine] | 0.5 to 5 µM | > 1000 nM
COc1ncccc1-c1cc2nccc(C3CCCN(Cc4ccc(Cl)cc4)C3)n2n1 (centres unmarked) [Example 114, 7-(1-(4-Chlorobenzyl)piperidin-3-yl)-2-(2-methoxypyridin-3-yl)pyrazolo[1,5-a]pyrimidine] | > 5 µM | > 1000 nM
Oc1ncccc1-c1cc2nccc(C3CCCN(Cc4ccc(Cl)cc4)C3)n2n1 (centres unmarked) [Example 115, 3-(7-(1-(4-chlorobenzyl)piperidin-3-yl)pyrazolo[1,5-a]pyrimidin-2-yl)pyridin-2-ol] | > 5 µM | > 1000 nM
COc1ncccc1-c1cc2nccc(C3CCCN(Cc4cccc(Cl)c4)C3)n2n1 (centres unmarked) [Example 116, 7-(1-(3-Chlorobenzyl)piperidin-3-yl)-2-(2-methoxypyridin-3-yl)pyrazolo[1,5-a]pyrimidine] | > 5 µM | > 1000 nM

SMILES | Ki [1] | Ki [2]
Oc1ncccc1-c1cc2nccc(C3CCCN(Cc4cccc(Cl)c4)C3)n2n1 (centres unmarked) [Example 117, 3-(7-(1-(3-Chlorobenzyl)piperidin-3-yl)pyrazolo[1,5-a]pyrimidin-2-yl)pyridin-2-ol] | > 5 µM | > 1000 nM
COc1ncccc1-c1cc2nccc(C3CCCN(Cc4ccc(Cl)c(Cl)c4)C3)n2n1 (centres unmarked) [Example 118, 7-(1-(3,4-Dichlorobenzyl)piperidin-3-yl)-2-(2-methoxypyridin-3-yl)pyrazolo[1,5-a]pyrimidine] | > 5 µM | > 1000 nM
COc1ncccc1-c1cc2nccc(C3CCCN(Cc4ccc(F)c(F)c4)C3)n2n1 (centres unmarked) [Example 119, 7-(1-(3,4-Difluorobenzyl)piperidin-3-yl)-2-(2-methoxypyridin-3-yl)pyrazolo[1,5-a]pyrimidine] | > 5 µM | > 1000 nM
Clc1ccc(CN2CCCC(c3ccnc4c(CNCC5CCOCC5)c(Br)nn34)C2)cc1 (centres unmarked) [Example 120, 1-(2-Bromo-7-(1-(4-chlorobenzyl)piperidin-3-yl)pyrazolo[1,5-a]pyrimidin-3-yl)-N-((tetrahydro-2H-pyran-4-yl)methyl)methanamine] | < 0.5 µM | < 500 nM
Cc1nn2c(C3CCCN(Cc4ccc(Cl)cc4)C3)ccnc2c1-c1ccncc1 (centres unmarked) [Example 121, 7-(1-(4-Chlorobenzyl)piperidin-3-yl)-2-methyl-3-(pyridin-4-yl)pyrazolo[1,5-a]pyrimidine] | 0.5 to 5 µM | 500 to 1000 nM
Cc1nn2c(C3CCCN(Cc4cccc(Cl)c4)C3)ccnc2c1-c1ccncc1 (centres unmarked) [Example 122, 7-(1-(3-Chlorobenzyl)piperidin-3-yl)-2-methyl-3-(pyridin-4-yl)pyrazolo[1,5-a]pyrimidine] | 0.5 to 5 µM | > 1000 nM
Cc1nn2c(C3CCCN(Cc4ccc(Cl)c(Cl)c4)C3)ccnc2c1-c1ccncc1 (centres unmarked) [Example 123, 7-(1-(3,4-Dichlorobenzyl)piperidin-3-yl)-2-methyl-3-(pyridin-4-yl)pyrazolo[1,5-a]pyrimidine] | 0.5 to 5 µM | > 1000 nM
Cc1nn2c(C3CCCN(Cc4ccc(Cl)cc4Cl)C3)ccnc2c1-c1ccncc1 (centres unmarked) [Example 124, 7-(1-(2,4-Dichlorobenzyl)piperidin-3-yl)-2-methyl-3-(pyridin-4-yl)pyrazolo[1,5-a]pyrimidine] | > 5 µM | 500 to 1000 nM
Cc1nn2c(C3CCCN(Cc4ccc(F)c(F)c4)C3)ccnc2c1-c1ccncc1 (centres unmarked) [Example 125, 7-(1-(3,4-Difluorobenzyl)piperidin-3-yl)-2-methyl-3-(pyridin-4-yl)pyrazolo[1,5-a]pyrimidine] | 0.5 to 5 µM | > 1000 nM
Cc1nn2c(C3CCCN(Cc4ccc(C(F)(F)F)cc4)C3)ccnc2c1-c1ccncc1 (centres unmarked) [Example 126, 2-Methyl-3-(pyridin-4-yl)-7-(1-(4-(trifluoromethyl)benzyl)piperidin-3-yl)pyrazolo[1,5-a]pyrimidine] | > 5 µM | > 1000 nM
Cc1nn2c(C3CCCN(CCC(C)C)C3)ccnc2c1-c1ccncc1 (centres unmarked) [Example 127, 7-(1-Isopentylpiperidin-3-yl)-2-methyl-3-(pyridin-4-yl)pyrazolo[1,5-a]pyrimidine] | > 5 µM | < 500 nM
Cc1nn2c(C3CCCN(Cc4ccc(Cl)cc4)C3)ccnc2c1-c1cccc(C(=O)N(C)C)c1 (centres unmarked) [Example 128, 3-(7-(1-(4-Chlorobenzyl)piperidin-3-yl)-2-methylpyrazolo[1,5-a]pyrimidin-3-yl)-N,N-dimethylbenzamide] | > 5 µM | > 1000 nM
Cc1nn2c(C3CCCN(Cc4ccc(Cl)cc4)C3)ccnc2c1-c1ccc(C(N)=O)cc1 (centres unmarked) [Example 129, 4-(7-(1-(4-Chlorobenzyl)piperidin-3-yl)-2-methylpyrazolo[1,5-a]pyrimidin-3-yl)benzamide] | > 5 µM | > 1000 nM
Cc1nn2c(C3CCCN(Cc4ccc(Cl)cc4)C3)ccnc2c1-c1cncnc1 (centres unmarked) [Example 130, 7-(1-(4-Chlorobenzyl)piperidin-3-yl)-2-methyl-3-(pyrimidin-5-yl)pyrazolo[1,5-a]pyrimidine] | 0.5 to 5 µM | > 1000 nM
Cc1nn2c(C3CCCN(Cc4ccc(Cl)cc4)C3)ccnc2c1-c1cnc(N)nc1 (centres unmarked) [Example 131, 5-(7-(1-(4-Chlorobenzyl)piperidin-3-yl)-2-methylpyrazolo[1,5-a]pyrimidin-3-yl)pyrimidin-2-amine] | > 5 µM | > 1000 nM
Cc1nn2c(C3CCCN(Cc4ccc(Cl)cc4)C3)ccnc2c1-c1cnn(C)c1 (centres unmarked) [Example 132, 7-(1-(4-Chlorobenzyl)piperidin-3-yl)-2-methyl-3-(1-methyl-1H-pyrazol-4-yl)pyrazolo[1,5-a]pyrimidine] | 0.5 to 5 µM | > 1000 nM
Cc1noc(C)c1-c1c(C)nn2c(C3CCCN(Cc4ccc(Cl)cc4)C3)ccnc12 (centres unmarked) [Example 133, 4-(7-(1-(4-Chlorobenzyl)piperidin-3-yl)-2-methylpyrazolo[1,5-a]pyrimidin-3-yl)-3,5-dimethylisoxazole] | > 5 µM | > 1000 nM
